Our source for the GI50 and TGI values is PubChem BioAssay (NCI).

What all share (assay): inhibition of tumour cell growth, NCI panel, 48 h
Experiment [1] relates to MOLT-4 leukemia.
The subject of experiment [2] is 786-0 renal.
Experiment [3] concerns DU-145 prostate.
The test system of experiment [4] is CAKI-1 renal.
Experiment [5] relates to HCT-116 colon.
In experiment [6] the test system is TK-10 renal.
Experiment [7] deals with SW-620 colon.
Experiment [8] deals with UACC-257 melanoma.
Experiment [9] relates to CCRF-CEM leukemia.
Experiment [10] has as its system A498 renal.

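How tested: cells in 96-well plates exposed to compound for 48 hours at five concentrations. At the GI50, growth is halved. At the TGI there is no net growth.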

For the compound `N#Cc1c2ccccc2c2nnc3cc(C(F)(F)F)ccc3n12`, the GI50 in experiment [1] is 34.7 µM; in experiment [2], greater than 100 µM; in [3], 58.4 µM; in experiment [4] it was 38.6 µM; in experiment [5], 25.4 µM; in experiment [6] it was 99.8 µM. In experiment [7], the GI50 is greater than 100 µM. Also, the TGI in experiment [1], in [2], in [3], in experiment [4], in [5] and in experiment [6] was greater than 100 µM throughout. In addition, the TGI in [7] was greater than 100 µM.

Turning to `COC(=O)C/C(C)=C/[C@@H](O)[C@H]1O[C@@H]2CC/C(Cl)=C/C/C=C(/C)[C@H](OC(C)=O)CC(=O)O[C@@H]1C2`, the GI50 in [1] is 6.15 µM; in experiment [2] it was 0.708 µM; in experiment [3], 1.29 µM; in experiment [5], 3.22 µM; in experiment [6] it was 0.489 µM; in [7], 19.1 µM. In addition, the GI50 in experiment [8] was 2.92 µM. For the same compound, the TGI in [1] was 19.8 µM; in [2] it was 2.53 µM; in experiment [3] it was greater than 25 µM; in [5], 7.85 µM; in experiment [6], 1.32 µM; in [7] it was greater than 25 µM. For the same compound, the TGI in experiment [8] was 7.92 µM.

For `C=C1C(=O)O[C@H]2[C@H]1CC/C(COC(=O)/C=C/c1cccnc1)=C\CC[C@@]1(C)O[C@@H]21`, the GI50 was 0.338 µM in experiment [9]; 1.75 µM in [1]; 4.11 µM in experiment [10]; 1.1 µM in [2]; 1.39 µM in experiment [3]; 0.371 µM in [5]. For the same compound, the GI50 in experiment [6] was 2.01 µM; in [7], 0.467 µM; in experiment [8], 1.73 µM. The TGI in [9] was found to be 3.73 µM; in [1] it was 4.9 µM; in experiment [10], 16.3 µM; in [2], 2.58 µM; in [3], 3.01 µM; in [5], 1.52 µM. In addition, the TGI in experiment [6] was found to be 4.06 µM; in experiment [7] it was 2.35 µM; in experiment [8] it was 3.54 µM.

Turning to `NCCCn1c2c(c3ccccc3c1=O)C(=O)c1cc3c(cc1-2)OCO3`, the GI50 in experiment [9] was 0.0271 µM; in [1], less than 0.01 µM; in [2], 0.241 µM; in [3], 0.137 µM; in experiment [4] it was 0.247 µM; in experiment [5], 0.213 µM. Further, the GI50 was 0.111 µM in experiment [7] and 1.95 µM in experiment [8]. Also, the TGI in experiment [9] turned out to be 0.187 µM; in experiment [2], 3.1 µM; in experiment [3] it was 0.638 µM; in [4], 2.27 µM; in [6], 4.17 µM; in [7], 2.35 µM. This compound yielded a TGI in experiment [8] of 12.6 µM.

Turning to `COc1cc(-c2cc(C(=O)Nc3nc4ccccc4s3)nc3cc(-c4ccccc4)nn23)cc(OC)c1OC`, the GI50 was 54.1 µM in [9]; greater than 100 µM in experiment [1]; 9.29 µM in experiment [10]; 2.59 µM in experiment [2]; 65 µM in experiment [3]; 53.7 µM in [4]. The values for the GI50 in [5] and in experiment [6] were 4.51 µM and 11.9 µM, respectively. The TGI is greater than 100 µM in experiment [9]; greater than 100 µM in experiment [1]; 36.7 µM in experiment [10]; 12.8 µM in experiment [2]; greater than 100 µM in experiment [3]; greater than 100 µM in experiment [4]. The TGI in experiment [5] was greater than 100 µM; in experiment [6], 32.7 µM.

Turning to `CCN(CC)c1ccc2[nH]c3c(C(N)=O)cc(=O)c(=O)c=3oc2c1`, the GI50 was 1.9 µM in [9]; 1.92 µM in [10]; 2.42 µM in [2]; 1.87 µM in experiment [3]; 1.09 µM in [4]; 0.281 µM in experiment [5]. Moreover, the GI50 was 2.36 µM in experiment [7] and 0.683 µM in experiment [8]. The TGI in experiment [9] is 8.19 µM; in [10], 9.28 µM; in experiment [2], greater than 100 µM; in experiment [3] it was 7.39 µM; in [4] it was 3.44 µM; in [5], 1.04 µM. Further, the results for the TGI in experiment [7] and in [8] were greater than 100 µM and 3.25 µM, respectively.

With `O=C(O)C(Cc1ccccc1-c1ccccc1)C(=O)O`, the TGI in [1], in experiment [10], in experiment [2], in experiment [3], in experiment [4] and in experiment [5] was greater than 100 µM in each case. The TGI in experiment [6], in [7] and in experiment [8] was greater than 100 µM each time.

On to `CCOC(=O)c1sc2ncn(Cc3cccc(Cl)c3)c(=O)c2c1C`, for which the GI50 in experiment [1] is 13.2 µM; in experiment [10] it was 15.9 µM; in [2], 13.1 µM; in [3], 17.7 µM; in experiment [4], 6.19 µM; in experiment [5] it was 12.3 µM. Further, the GI50 in experiment [7] was 18.1 µM; in experiment [8] it was 15.6 µM. For the same compound, the TGI in experiment [1] came to 25.9 µM; in experiment [10], 30.7 µM; in experiment [2], 25.7 µM; in experiment [3], 31.5 µM; in [4], 19.2 µM; in experiment [5], 24.8 µM. Further, the TGI in [7] came out at 32 µM; in experiment [8], 29.3 µM.

Consider `COC(=O)/C=C1\SC(=Nc2ccc(C(F)(F)F)cc2)N(CCc2c[nH]c3ccccc23)C1=O`, for which the GI50 in [9] is 1.95 µM; in experiment [1], 1.22 µM; in experiment [10], 1.5 µM; in experiment [2], 1.56 µM; in experiment [3], 1.87 µM; in experiment [5] it was 1.21 µM. Besides, the GI50 is 2.06 µM in experiment [6], 1.57 µM in [7] and 1.67 µM in experiment [8]. The TGI in experiment [9] came to 7.22 µM; in experiment [1] it was 5.51 µM; in experiment [10], 2.98 µM; in experiment [2] it was 2.95 µM; in experiment [3] it was 4.21 µM; in experiment [5], 2.47 µM. Moreover, the TGI in [6] stood at 3.94 µM; in experiment [7] it was 3.29 µM; in experiment [8], 3.18 µM.
